Values joined by “and” are separate entries in the source; they are usually repeats but may differ in a detail not shown here. Equal entries are not always repeated. Active and inactive are the calls of the source. No rule for the calls is given here.
Test system: rodent lifetime carcinogenesis bioassay, tumor incidence TD50
Experiment: chronic cancer bioassays in animals – CPDB, compiled studies (AID 1745844)

SMILES: O=NO
- TD50 (hamster, strain Syrian Golden, females, in feed, site: any site (literature study), lesion: one or several types, types not named, dosed 97 weeks, study length 97 weeks): 477 mg/kg/day
- TD50 (mouse, strain B6C3F1, females, in drinking water, site: any site (literature study), lesion: several types, types named in the paper, dosed 104 weeks, study length 104 weeks): 459 mg/kg/day
- TD50 (mouse, strain B6C3F1, females, in drinking water, site: forestomach, lesion: squamous-cell carcinoma + squamous-cell papilloma, dosed 104 weeks, study length 104 weeks): 1610 mg/kg/day
- TD50 (mouse, strain B6C3F1, females, in drinking water, site: lung, lesion: alveolar/bronchiolar adenoma + alveolar/bronchiolar carcinoma, dosed 104 weeks, study length 104 weeks): 843 mg/kg/day
- TD50 (mouse, strain B6C3F1, males, in drinking water, site: any site (literature study), lesion: several types, types named in the paper, dosed 104 weeks, study length 104 weeks): 9190 mg/kg/day (inactive)
- TD50 (mouse, strain B6C3F1, males, in drinking water, site: lung, lesion: alveolar/bronchiolar adenoma + alveolar/bronchiolar carcinoma, dosed 104 weeks, study length 104 weeks): 990 mg/kg/day
- carcinogen call (mouse, strain C57BL/6, females, in drinking water, site: liver, lesion: several types, types named in the paper, dosed 117 weeks, study length 126 weeks): negative (inactive)
- TD50 (mouse, strain C57BL/6, females, in drinking water, site: lung, lesion: one or several types, types not named, dosed 117 weeks, study length 126 weeks): 5200 mg/kg/day (inactive)
- carcinogen call (mouse, strain C57BL/6, females, in feed, site: any site (literature study), lesion: several types, types named in the paper, dosed 52 weeks, study length 69 weeks): negative (inactive)
- carcinogen call (mouse, strain C57BL/6, females, in feed, site: liver, lesion: hepatocellular carcinoma, dosed 52 weeks, study length 69 weeks): negative (inactive)
- carcinogen call (mouse, strain C57BL/6, females, in feed, site: lung, lesion: adenoma, dosed 52 weeks, study length 69 weeks): negative (inactive)
- TD50 (mouse, strain C57BL/6, males, in feed, site: any site (literature study), lesion: several types, types named in the paper, dosed 52 weeks, study length 69 weeks): 1210 mg/kg/day (inactive)
- carcinogen call (mouse, strain C57BL/6, males, in feed, site: liver, lesion: hepatocellular carcinoma, dosed 52 weeks, study length 69 weeks): negative (inactive)
- TD50 (mouse, strain C57BL/6, males, in feed, site: lung, lesion: adenoma, dosed 52 weeks, study length 69 weeks): 1610 mg/kg/day (inactive)
- carcinogen call (mouse, strain ICR/Jcl, females, in drinking water, site: any site (literature study), lesion: several types, types named in the paper, dosed 109 weeks, study length 109 weeks): negative (inactive)
- carcinogen call (mouse, strain ICR/Jcl, females, in drinking water, site: liver, lesion: one or several types, types not named, dosed 109 weeks, study length 109 weeks): negative (inactive)
- TD50 (mouse, strain ICR/Jcl, females, in drinking water, site: lung, lesion: one or several types, types not named, dosed 109 weeks, study length 109 weeks): 7230 mg/kg/day (inactive)
- carcinogen call (mouse, strain ICR/Jcl, males, in drinking water, site: any site (literature study), lesion: several types, types named in the paper, dosed 109 weeks, study length 109 weeks): negative (inactive)
- TD50 (mouse, strain ICR/Jcl, males, in drinking water, site: liver, lesion: one or several types, types not named, dosed 109 weeks, study length 109 weeks): 25000 mg/kg/day (inactive)
- TD50 (mouse, strain ICR/Jcl, males, in drinking water, site: lung, lesion: one or several types, types not named, dosed 109 weeks, study length 109 weeks): 16300 mg/kg/day (inactive)
- TD50 (mouse, strain Swiss CD-1, females, in drinking water, site: liver, lesion: hepatocellular tumor, dosed 34 weeks, study length 125 weeks): 744 mg/kg/day (inactive)
- carcinogen call (mouse, strain Swiss CD-1, females, in drinking water, site: lung, lesion: one or several types, types not named, dosed 34 weeks, study length 125 weeks): negative (inactive)
- carcinogen call (mouse, strain Swiss CD-1, males, in drinking water, site: liver, lesion: hepatocellular tumor, dosed 34 weeks, study length 115 weeks): negative (inactive)
- TD50 (mouse, strain Swiss CD-1, males, in drinking water, site: lung, lesion: one or several types, types not named, dosed 34 weeks, study length 115 weeks): 103 mg/kg/day (inactive)
- carcinogen call (mouse, strain VM, females, in drinking water, site: brain, lesion: glioma, dosed 134 weeks, study length 134 weeks): negative (inactive)
- carcinogen call (mouse, strain VM, males, in drinking water, site: brain, lesion: glioma, dosed 113 weeks, study length 113 weeks): negative (inactive)
- TD50 (rat, strain Charles River CD (Sprague-Dawley), both sexes, in feed, site: all sites, lesion: malignant lymphoma, dosed 123 weeks, study length 123 weeks): 539 mg/kg/day
- TD50 (rat, strain Charles River CD (Sprague-Dawley), both sexes, in feed, site: liver, lesion: angiosarcoma, dosed 123 weeks, study length 123 weeks): 5840 mg/kg/day
- TD50 (rat, strain Charles River CD (Sprague-Dawley), both sexes, in feed, site: spleen, lesion: lymphoma, dosed 123 weeks, study length 123 weeks): 601 mg/kg/day
- carcinogen call (rat, strain F344/DuCrj, males, in drinking water, site: forestomach, lesion: one or several types, types not named, dosed 51 weeks, study length 51 weeks): negative (inactive)
- carcinogen call (rat, strain F344/DuCrj, males, in drinking water, site: stomach, glandular, lesion: one or several types, types not named, dosed 51 weeks, study length 51 weeks): negative (inactive)
- TD50 (rat, strain Fischer 344, females, in drinking water, site: adrenal gland, lesion: medullary tumor, dosed 104 weeks, study length 128 weeks): 163 mg/kg/day
- TD50 (rat, strain Fischer 344, females, in drinking water, site: any site (literature study), lesion: several types, types named in the paper, dosed 104 weeks, study length 104 weeks): 74400 mg/kg/day (inactive)
- carcinogen call (rat, strain Fischer 344, females, in drinking water, site: any site (literature study), lesion: several types, types named in the paper, dosed 104 weeks, study length 120 weeks): negative (inactive)
- TD50 (rat, strain Fischer 344, females, in drinking water, site: liver, lesion: hepatocellular carcinoma, dosed 104 weeks, study length 128 weeks): 1550 mg/kg/day
- TD50 (rat, strain Fischer 344, females, in drinking water, site: liver, lesion: neoplastic nodule, dosed 104 weeks, study length 128 weeks): 185 mg/kg/day
- carcinogen call (rat, strain Fischer 344, females, in drinking water, site: liver, lesion: several types, types named in the paper, dosed 104 weeks, study length 120 weeks): negative (inactive)
- TD50 (rat, strain Fischer 344, females, in drinking water, site: liver, lesion: several types, types named in the paper, dosed 104 weeks, study length 128 weeks): 153 mg/kg/day
- TD50 (rat, strain Fischer 344, females, in drinking water, site: mammary tissue, wider than the gland, lesion: one or several types, types not named, dosed 104 weeks, study length 128 weeks): 115 mg/kg/day
- TD50 (rat, strain Fischer 344, females, in drinking water, site: thyroid gland, lesion: carcinoma, dosed 104 weeks, study length 128 weeks): 163 mg/kg/day
- TD50 (rat, strain Fischer 344, females, in drinking water, site: uterus, lesion: polyp, dosed 104 weeks, study length 128 weeks): 218 mg/kg/day
- carcinogen call (rat, strain Fischer 344, females, in feed, site: any site (literature study), lesion: several types, types named in the paper, dosed 52 weeks, study length 69 weeks): negative (inactive)
- TD50 (rat, strain Fischer 344, females, in feed, site: liver, lesion: carcinoma, dosed 104 weeks, study length 130 weeks): 470 mg/kg/day
- TD50 (rat, strain Fischer 344, females, in feed, site: liver, lesion: hepatocellular carcinoma, dosed 104 weeks, study length 128 weeks): 629 mg/kg/day
- TD50 (rat, strain Fischer 344, females, in feed, site: liver, lesion: hepatocellular carcinoma, dosed 104 weeks, study length 130 weeks): 516 mg/kg/day
- TD50 (rat, strain Fischer 344, females, in feed, site: liver, lesion: neoplastic nodule, dosed 104 weeks, study length 128 weeks): 164 mg/kg/day
- TD50 (rat, strain Fischer 344, females, in feed, site: liver, lesion: neoplastic nodule, dosed 104 weeks, study length 130 weeks): 199 mg/kg/day and 218 mg/kg/day
- carcinogen call (rat, strain Fischer 344, females, in feed, site: liver, lesion: one or several types, types not named, dosed 52 weeks, study length 69 weeks): negative (inactive)
- TD50 (rat, strain Fischer 344, females, in feed, site: liver, lesion: several types, types named in the paper, dosed 104 weeks, study length 128 weeks): 141 mg/kg/day
- TD50 (rat, strain Fischer 344, females, in feed, site: liver, lesion: several types, types named in the paper, dosed 104 weeks, study length 130 weeks): 124 mg/kg/day and 136 mg/kg/day
- carcinogen call (rat, strain Fischer 344, males, in drinking water, site: any site (literature study), lesion: several types, types named in the paper, dosed 104 weeks, study length 120 weeks): negative (inactive)
- TD50 (rat, strain Fischer 344, males, in drinking water, site: liver, lesion: hepatocellular adenoma + hepatoblastoma + hepatocellular carcinoma, dosed 104 weeks, study length 104 weeks): 6550 mg/kg/day
- TD50 (rat, strain Fischer 344, males, in drinking water, site: liver, lesion: hepatocellular carcinoma, dosed 104 weeks, study length 128 weeks): 1040 mg/kg/day
- TD50 (rat, strain Fischer 344, males, in drinking water, site: liver, lesion: several types, types named in the paper, dosed 104 weeks, study length 120 weeks): 1310 mg/kg/day (inactive)
- TD50 (rat, strain Fischer 344, males, in drinking water, site: liver, lesion: several types, types named in the paper, dosed 104 weeks, study length 128 weeks): 946 mg/kg/day
- TD50 (rat, strain Fischer 344, males, in drinking water, site: skin, lesion: fibroma, dosed 104 weeks, study length 104 weeks): 667 mg/kg/day (inactive)
- carcinogen call (rat, strain Fischer 344, males, in feed, site: all sites, lesion: granulocytic leukemia, dosed 115 weeks, study length 115 weeks): negative (inactive)
- carcinogen call (rat, strain Fischer 344, males, in feed, site: all sites, lesion: mononuclear-cell leukemia, dosed 115 weeks, study length 115 weeks): negative (inactive)
- carcinogen call (rat, strain Fischer 344, males, in feed, site: any site (literature study), lesion: one or several types, types not named, dosed 115 weeks, study length 115 weeks): negative (inactive)
- carcinogen call (rat, strain Fischer 344, males, in feed, site: any site (literature study), lesion: several types, types named in the paper, dosed 52 weeks, study length 69 weeks): negative (inactive)
- TD50 (rat, strain Fischer 344, males, in feed, site: liver, lesion: neoplastic nodule, dosed 104 weeks, study length 130 weeks): 467 mg/kg/day and 674 mg/kg/day
- carcinogen call (rat, strain Fischer 344, males, in feed, site: liver, lesion: one or several types, types not named, dosed 52 weeks, study length 69 weeks): negative (inactive)
- TD50 (rat, strain Fischer 344, males, in feed, site: liver, lesion: several types, types named in the paper, dosed 104 weeks, study length 130 weeks): 445 mg/kg/day and 641 mg/kg/day
- carcinogen call (rat, strain Fischer 344, males, in feed, site: several sites, sites named in the paper, lesion: lymphoma, dosed 115 weeks, study length 115 weeks): negative (inactive)
- carcinogen call (rat, strain Fischer 344, males, in feed, site: testis, lesion: interstitial-cell tumor, dosed 115 weeks, study length 115 weeks): negative (inactive)
- carcinogen call (rat, strain MRC, females, in drinking water, site: any site (literature study), lesion: one or several types, types not named, dosed 67 weeks, study length 122 weeks): negative (inactive)
- TD50 (rat, strain MRC, females, in drinking water, site: any site (literature study), lesion: several types, types named in the paper, dosed 84 weeks, study length 104 weeks): 57.3 mg/kg/day (inactive)
- carcinogen call (rat, strain MRC, females, in drinking water, site: liver, lesion: one or several types, types not named, dosed 67 weeks, study length 122 weeks): negative (inactive)
- carcinogen call (rat, strain MRC, males, in drinking water, site: any site (literature study), lesion: one or several types, types not named, dosed 67 weeks, study length 122 weeks): negative (inactive)
- TD50 (rat, strain MRC, males, in drinking water, site: any site (literature study), lesion: several types, types named in the paper, dosed 84 weeks, study length 104 weeks): 61.9 mg/kg/day (inactive)
- carcinogen call (rat, strain MRC, males, in drinking water, site: liver, lesion: one or several types, types not named, dosed 67 weeks, study length 122 weeks): negative (inactive)
- carcinogen call (rat, strain Wistar, males, in drinking water, site: liver, lesion: hepatocellular carcinoma, dosed 94 weeks, study length 94 weeks): negative (inactive)
- carcinogen call (rat, strain Wistar, males, in drinking water, site: liver, lesion: one or several types, types not named, dosed 102 weeks, study length 102 weeks): negative (inactive)
- carcinogen call (rat, strain Wistar, males, in drinking water, site: lung, lesion: one or several types, types not named, dosed 94 weeks, study length 94 weeks): negative (inactive)
- carcinogen call (rat, strain Wistar, males, in drinking water, site: nasal cavity, lesion: one or several types, types not named, dosed 94 weeks, study length 94 weeks): negative (inactive)
- TD50 (rat, strain Wistar, males, in feed, site: liver, lesion: several types, types named in the paper, dosed 92 weeks, study length 92 weeks): 155 mg/kg/day

— PubChem BioAssay AID1745844 (Carcinogenic Potency Database (CPDB), 2022)
